We go through 19 compounds from ChEMBL document CHEMBL4808250, “Synthesis and biological evaluation of substituted amide derivatives of C4-ageratochromene dimer analog” (Bioorg Med Chem Lett, 2021).

The test system of series [1] is Calvarial osteoblast. The series is described as follows: Induction of osteoblast differentiation in mouse calvarial osteoblasts assessed as increase in ALP activity at 1 pM incubated for 48 hrs by spectrophotometric analysis. Type of series: functional, cell-based.
The test system of series [2] is MCF7. Put plainly: Antiproliferative activity against ER-positive human MCF7 cells assessed as reduction in cell growth at 50 ug/ml measured by MTT assay. The format is functional. The conditions noted are these: read-out: GI. For orientation: Tetrazolium assays rely on reduction of a dye to a coloured formazan, in cell work by metabolically active cells.
Series [3] has as its system MDA-MB-231. Put plainly: Antiproliferative activity against ER-negative human MDA-MB-231 cells assessed as reduction in cell growth at 50 ug/ml measured by MTT assay. Type of series: functional. To be noted: read-out: GI.
For series [4], the system named is PA-1. Put plainly: Antiproliferative activity against human PA-1 cells assessed as reduction in cell growth at 50 ug/ml measured by MTT assay. The conditions noted are these: read-out: GI. Type of series: functional.
Series [5] concerns Calvarial osteoblast. Put plainly: Induction of osteogenic differentiation in mouse calvarial osteoblasts assessed as increase in RUNX2 mRNA expression level at 1 to 100 pM after 24 to 48 hrs by RT-qPCR analysis. Type of series: functional, cell-based. To be noted: dose 1-100 pM, time 24-48 hrs. (Quantitative PCR measures a nucleic acid by following its amplification.)
The test system of series [6] is Calvarial osteoblast. The series is described as follows: Induction of osteogenic differentiation in mouse calvarial osteoblasts assessed as increase in BMP2 mRNA expression level at 1 to 100 pM after 24 to 48 hrs by RT-qPCR analysis. The format is functional, cell-based. To be noted: dose 1-100 pM, time 24-48 hrs.
The subject of series [7] is Calvarial osteoblast. Put plainly: Induction of osteogenic differentiation in mouse calvarial osteoblasts assessed as increase in Type-1 collagen mRNA expression level at 1 to 100 pM after 24 to 48 hrs by RT-qPCR analysis. Type of series: functional, cell-based. The conditions noted are these: dose 1-100 pM, time 24-48 hrs.
Series [8] concerns Calvarial osteoblast. Put plainly: Cytotoxicity against mouse calvarial osteoblasts assessed as reduction in cell viability at 0.000001 to 1 uM measured after 48 hrs by MTT assay. The format is cell-based. To be noted: dose lower 1e-06 µM, dose upper 1 µM.
Series [9] relates to Calvarial osteoblast. Put plainly: Induction of osteoblast differentiation in mouse calvarial osteoblasts assessed as increase in bone mineralization at 1 pM incubated for 21 days by alizarin-red S dye based colorimetric analysis. The format is functional, cell-based. The conditions noted are these: time 21.0 day.
The subject of series [10] is Calvarial osteoblast. Put plainly: Induction of osteoblast differentiation in mouse calvarial osteoblasts assessed as increase in ALP activity at 100 pM incubated for 48 hrs by spectrophotometric analysis. Type of series: functional, cell-based.

Each structure is given as a SMILES string. The source made the active and inactive calls. The rule behind the calls is not given here.

In the case of `CNCCCCNC(=O)CCCCOc1ccc2c(c1)OC(C)(C)C/C2=C1/CC(C)(C)Oc2cc(OC)ccc21`, in series [1], the outcome was Active. For the same compound, the inhibition of growth at 50 µg/mL came to 25.2% in [2] and 36.5% in series [3].
Take `CNCCCCNC(=O)CCCCCOc1ccc2c(c1)OC(C)(C)C/C2=C1/CC(C)(C)Oc2cc(OC)ccc21`: the inhibition of growth at 50 µg/mL in series [4] was 26.6%; in series [2], 25.2%; in series [3], 36.5%.
In the case of `COc1ccc2c(c1)OC(C)(C)C/C2=C1/CC(C)(C)Oc2cc(OCCCC(=O)N3CCCCC3)ccc21`, the outcome in series [1], in [5], in [6], in series [7] and in [9] was Active. The inhibition of growth at 50 µg/mL in [4] was 68.3%; in [2], 26.1%; in series [3], 15.9%. For the same compound, in series [8], the Activity result is recorded as “Non-Toxic”.
Consider `COc1ccc2c(c1)OC(C)(C)C/C2=C1/CC(C)(C)Oc2cc(OCCCCC(=O)N3CCN(C)CC3)ccc21`, for which the inhibition of growth at 50 µg/mL in [4] was 26.6%; in [2], 25.2%; in [3], 36.5%.
Turning to `COc1ccc2c(c1)OC(C)(C)C/C2=C1/CC(C)(C)Oc2cc(OCCCCCC(=O)N3CCCCC3)ccc21`, the inhibition of growth at 50 µg/mL is 26.6% in series [4] and 36.5% in series [3].
As to `COc1ccc2c(c1)OC(C)(C)C/C2=C1/CC(C)(C)Oc2cc(OCCCCCC(=O)N3CCN(C)CC3)ccc21`, the values for the inhibition of growth at 50 µg/mL in series [4] and in [2] were 26.6% and 25.2%, respectively.
As to `CNCCCCNC(=O)CCCOc1ccc2c(c1)OC(C)(C)C/C2=C1/CC(C)(C)Oc2cc(OC)ccc21`, in series [3], the inhibition of growth at 50 µg/mL came to 36.5%.
For `COc1ccc2c(c1)OC(C)(C)C/C2=C1/CC(C)(C)Oc2cc(OCCCC(=O)NCc3ccccn3)ccc21`, in [4], the inhibition of growth at 50 µg/mL was found to be 26.6%.
For `COc1ccc2c(c1)OC(C)(C)C/C2=C1/CC(C)(C)Oc2cc(OCCCCC(=O)N3CCCC3)ccc21`, the inhibition of growth at 50 µg/mL in series [4] was 26.6%; in series [2], 25.2%; in series [3], 36.5%.
Take `COc1ccc2c(c1)OC(C)(C)C/C2=C1/CC(C)(C)Oc2cc(OC)ccc21`: the inhibition of growth at 50 µg/mL turned out to be 26.6% in series [4], 25.2% in [2] and 36.5% in series [3].
For `COc1ccc2c(c1)OC(C)(C)C/C2=C1/CC(C)(C)Oc2cc(OCCCCCC(=O)NCCCCCCNC(=O)OC(C)(C)C)ccc21`, the outcome in series [10] was Active. Further, the results for the inhibition of growth at 50 µg/mL in series [4], in series [2] and in [3] were 26.6%, 25.2% and 36.5%, respectively.
With `COc1ccc2c(c1)OC(C)(C)C/C2=C1/CC(C)(C)Oc2cc(OCCCCCC(=O)NCc3ccccn3)ccc21`, in series [3], the inhibition of growth at 50 µg/mL turned out to be 36.5%.
Turning to `COc1ccc2c(c1)OC(C)(C)C/C2=C1/CC(C)(C)Oc2cc(OCCCC(=O)N3CCCC3)ccc21`, in series [1], the result was Active. For the same compound, the inhibition of growth at 50 µg/mL in series [4] was 26.6%; in [2] it was 25.2%; in series [3], 36.5%.
In the case of `COc1ccc2c(c1)OC(C)(C)C/C2=C1/CC(C)(C)Oc2cc(OCCCCCC(=O)N3CCCC3)ccc21`, the inhibition of growth at 50 µg/mL in [2] stood at 25.2%.
In the case of `COc1ccc2c(c1)OC(C)(C)C/C2=C1/CC(C)(C)Oc2cc(O)ccc21`, the inhibition of growth at 50 µg/mL in series [4] stood at 26.6%; in series [2], 25.2%; in series [3], 36.5%.
On the same counts, the results for `COc1ccc2c(c1)OC(C)(C)C/C2=C1/CC(C)(C)Oc2cc(OCCCCC(=O)NCc3ccccn3)ccc21` are 26.6%, 25.2% and 36.5%.
With `COc1ccc2c(c1)OC(C)(C)C/C2=C1/CC(C)(C)Oc2cc(OCCCC(=O)N3CCN(C)CC3)ccc21`, the result in series [10] was Active. For the same compound, in series [2], the inhibition of growth at 50 µg/mL is 25.2%.
For `COc1ccc2c(c1)OC(C)(C)C/C2=C1/CC(C)(C)Oc2cc(OCCCCC(=O)N3CCCCC3)ccc21`, the results for the inhibition of growth at 50 µg/mL in series [4], in series [2] and in series [3] were 26.6%, 25.2% and 36.5%, respectively.
Take `COc1ccc2c(c1)OC(C)(C)C/C2=C1/CC(C)(C)Oc2cc(OCCCC(=O)NCCCCCCNC(=O)OC(C)(C)C)ccc21`: the result in [1] was Active. The figures for the inhibition of growth at 50 µg/mL in series [4] and in series [3] were 26.6% and 36.5%, respectively.
